Assay: Gel formation (% +50 mesh gel bound)
Assay type: physicochemical
Settings: tap water at 1% dilution

SMILES: N.N.O=S(=O)(O)O [Ammonium Sulfate (AMS), Ammonium Sulfate]
- % +50 mesh gel bound: 0%

From patent US6423109B1, “Free flowing fertilizer composition with enhanced deposition/anti drift characteristics” (Adjuvants Unlimited Inc., priority 2000, dated 2002)
